Results as given in patent US8586542B2, “Small molecule apoptosis promoters” (Joyant Pharmaceuticals, Inc., priority 2006, dated 2013).

Key:
Wap-ras tumors = experiment: In vivo therapy in the WAP-RAS transgenic model; design: species or system mice; settings: mimetic 20 mpk po; Paclitaxel 5 mpk ip
Procedure: Mimetic and Paclitaxel combination efficacy is also evaluated in the Wap-ras transgenic model.
Mimetics (20 mpk/dosing po) are dissolved in 20% hydroxyl-propyl-betacyclodexatrin (Vehicle I). 0.2 ml of mimetic solution is the oral dosing volume. Paclitaxel (5 mpk/dosing ip) is dissolved in a diluted ethanol/cremophor EL solution (vehicle II) and the i.p. dosing volume for paclitaxel is 0.1 ml.
The mice are weighed, randomized, and ear-marked on Day 0. Mimetic treatment and Vehicle I treatment is begun on Day 1 and continued every 12 hours until Day 21. Paclitaxel and Vehicle II treatments are started on Day 4 and continued daily on Day 5, 6, and 7.

[1] = molecular target: T1, truncated XIAP containing only BIR1, BIR2, and BIR3 domains (Homo sapiens, UniProt P98170); experiment: Fluorescent polarization assay (Bir binding); settings: competition with 2 nM fluorescein labeled AVPI peptide, room temperature, 1 hour
T1 construct: truncated XIAP containing only BIR1, BIR2, and BIR3 domains
Procedure: Increasing concentrations of Smac compounds are incubated with 2 nM of labeled peptide (fluorescein labeled 10 mer peptide with AVPI 4 amino acids at its N terminus-Alexa Fluor 488) and truncated XIAP containing only BIR1, BIR2, and BIR3 domains at room temperature for 1 hour. Fluorescence reading, indicative of the bound portion of the labeled peptide, is measured in milipolarization units (mP). The more compound added, less fluorescein labeled peptide bind to the protein due to the competitive binding and less fluorescence signal is released.
Based on this principle, we obtain the Ki value that evaluates compound's binding affinity.

Caspase3 in Hela S100 = experiment: In-vitro caspase-3 activation assay in Hela S100 extract; format: biochemical; settings: 100 nM compound, Hela S100, 1 mM dATP; slope versus control (compound 1 = Caspase std.)
Procedure: Caspase3 in most cell extracts can be activated by the addition of 1 mM dATP through the mitochondria caspase pathway. […] Taking advantage of this feature, we use 100 nM of synthetic Smac mimetic compound to test its ability to eliminate IAPB in the Hela S100 and fully induce Caspase3 activity. The In Vitro Caspase3 assay is carried out at 30° C., incubating 100 nM compounds with 30 ug of Hela S100, 1 mM dATP, 10 uM Caspase3 fluorogenic substrate (Caspase3 Substrate II, Fluorogenic, #235425 from Calbiochem). The readout is caspase-3 activity represented by relative fluorogenic unit, which is recorded kinetically. The slope in linear region of the curve for each compound is calculated.
The ratio of each synthetic compound's slope versus the slope of control reflects in vitro caspase-3 activation ability of compounds.

HCC461 cells = experiment: Cell viability assay in HCC461 cells (WST-1); format: cell-based; settings: HCC461; 48 hrs incubation, WST-1 viability; read-out: HCC461 cell
Procedure: HCC461 cells plated in 96 well plates at 5×10^4/ml cell density are treated with 50× synthetic Smac mimetic compounds (final concentration range between 30 uM and 0.001 uM). After 48 hrs incubation at 37° C. and 5% CO2, viability of the cells are measured using Cell Proliferation Reagent WST-1 assay kit (Roche Cat #11 644 807 001).
The tetrazolium salts are cleaved to formazan by cellular enzymes. An expansion in the number of viable cells results in an increase in the overall activity of mitochondrial dehydrogenases in the samples. This augmentation in the enzyme activity leads to an increase in the amount of formazan dye formed, which directly correlates to the number of metabolically active cells in the culture. Quantification of the formazan dye produced by metabolically active cells by using a microplate (ELISA) reader at 420-480 nm.

T1 sequence (P98170 1-356 limits assumed): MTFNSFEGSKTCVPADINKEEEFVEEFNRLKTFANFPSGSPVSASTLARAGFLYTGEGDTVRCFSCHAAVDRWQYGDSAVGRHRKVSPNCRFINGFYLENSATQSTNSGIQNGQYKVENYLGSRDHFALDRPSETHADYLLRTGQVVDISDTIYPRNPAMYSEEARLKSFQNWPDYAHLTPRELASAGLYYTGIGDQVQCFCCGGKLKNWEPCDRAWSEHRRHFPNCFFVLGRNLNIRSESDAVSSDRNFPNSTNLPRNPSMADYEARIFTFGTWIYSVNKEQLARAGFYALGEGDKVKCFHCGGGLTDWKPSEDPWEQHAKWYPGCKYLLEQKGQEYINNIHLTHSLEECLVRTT

SMILES	Bir binding [1] [µM]	Caspase % (Caspase3 in Hela S100) [%]	IC50 (HCC461 cells) [nM]	tumor response to treatment, single agent (Wap-ras tumors)
CC(=O)O[C@H]1C(=O)[C@@]2(C)[C@H]([C@H](OC(=O)c3ccccc3)[C@]3(O)C[C@H](OC(=O)[C@H](O)[C@@H](NC(=O)c4ccccc4)c4ccccc4)C(C)=C1C3(C)C)[C@]1(OC(C)=O)CO[C@@H]1C[C@@H]2O [Paclitaxel]	–	–	–	do not respond
CNC(C)C(=O)N[C@@H](CC#CC#CC[C@H](NC(=O)[C@H](C)NC)C(=O)N1CCC[C@H]1C(=O)NC(c1ccccc1)c1ccccc1)C(=O)N1CCC[C@H]1C(=O)NC(c1ccccc1)c1ccccc1 (stereo partly shown) [Compound 3]	0.12	48	26	–
CN[C@@H](C)C(=O)N[C@@H](Cc1nnn2c1-c1c(C[C@H](NC(=O)[C@H](C)NC)C(=O)N3CCC[C@H]3C(=O)N[C@@H]3CCCc4ccccc43)nnn1CC2)C(=O)N1CCCC1C(=O)N[C@@H]1CCCc2ccccc21.Cl.Cl (stereo partly shown) [Compound 21]	1.13	70	2200	–
CN[C@@H](C)C(=O)N[C@@H](CCCCCC[C@H](NC(=O)[C@H](C)NC)C(=O)N1CCC[C@H]1C(=O)NC(C)c1ccccc1)C(=O)N1CCC[C@H]1C(=O)NC(C)c1ccccc1 (stereo partly shown) [Compound 8]	0.27	93	70	–
CN[C@@H](C)C(=O)N[C@@H](CCCc1ccc(C[C@H](NC(=O)[C@H](C)NC)C(=O)N2CCC[C@H]2C(=O)N[C@@H]2CCCc3ccccc32)cc1)C(=O)N1CCC[C@H]1C(=O)N[C@@H]1CCCc2ccccc21.Cl.Cl [Compound 41]	0.3	99	20	–
CC[C@H](NC)C(=O)N[C@H](C(=O)N1CCCC1)c1ccc(C#CCO[C@H](C)[C@H](NC(=O)[C@H](C)NC)C(=O)N2CCC[C@H]2C(=O)N[C@@H]2CCCc3ccccc32)cc1.Cl.Cl [Compound 37]	0.3	59	200	–
C=C(C#CCO[C@H](C)[C@H](NC(=O)[C@H](C)NC)C(=O)N1CCC[C@H]1C(=O)N[C@@H]1CCCc2ccccc21)CO[C@H](C)[C@H](NC(=O)[C@H](C)NC)C(=O)N1CCC[C@H]1C(=O)N[C@@H]1CCCc2ccccc21.Cl.Cl [Compound 42]	0.2	109	240	–
CN[C@@H](C)C(=O)N[C@@H](Cc1ccc(OCCCCOc2ccc(C[C@H](NC(=O)[C@H](C)NC)C(=O)N3CCCC3C(=O)N[C@@H]3CCCc4ccccc43)cc2)cc1)C(=O)N1CCCC1C(=O)N[C@@H]1CCCc2ccccc21.Cl.Cl (stereo partly shown) [Compound 45]	0.15	136	2	–

Now from value to compound, other results behind:

Bir binding [1] [µM]	Caspase % (Caspase3 in Hela S100) [%]	IC50 (HCC461 cells) [nM]	SMILES	tumor response to treatment, single agent (Wap-ras tumors)
0.22	107	25	CC[C@H](NC)C(=O)N[C@@H](CC#CC#CC[C@H](NC(=O)[C@H](C)NC)C(=O)N1CCC[C@H]1C(=O)N[C@@H]1CCCc2ccccc21)C(=O)N1CCC[C@H]1C(=O)N[C@@H]1CCCc2ccccc21.Cl.Cl [Compound 16]	–
0.19	98	50	CN[C@@H](C)C(=O)N[C@@H](Cc1ccc(C#CC[C@H](NC(=O)[C@H](C)NC)C(=O)N2CCC[C@H]2C(=O)N[C@@H]2CCCc3ccccc32)cc1)C(=O)N1CCC[C@H]1C(=O)NC1CCCc2ccccc21.Cl (stereo partly shown) [Compound 36]	–
0.2	103	56	CN[C@@H](C)C(=O)N[C@@H](CCCCNC(=O)NCCCC[C@H](NC(=O)[C@H](C)NC)C(=O)N1CCC[C@H]1C(=O)N[C@@H]1CCCc2ccccc21)C(=O)N1CCC[C@H]1C(=O)N[C@@H]1CCCc2ccccc21.Cl.Cl [Compound 48]	–
0.18	99	520	CN[C@@H](C)C(=O)N[C@@H](Cc1cn(CCn2cc(C[C@H](NC(=O)[C@H](C)NC)C(=O)N3CCC[C@H]3C(=O)N[C@@H]3CCCc4ccccc43)nn2)nn1)C(=O)N1CCC[C@H]1C(=O)N[C@@H]1CCCc2ccccc21.Cl.Cl [Compound 20]	–
0.08	109	5	CN[C@@H](C)C(=O)N[C@H](C(=O)N1CCC[C@H]1C(=O)N[C@@H]1CCCc2ccccc21)c1ccc(C#CCO[C@H](C)[C@H](NC(=O)[C@H](C)NC)C(=O)N2CCC[C@H]2C(=O)N[C@@H]2CCCc3ccccc32)cc1 [Compound 32]	–
0.19	113	20	CN[C@@H](C)C(=O)N[C@@H](CCCCNC(=O)c1ccc(C(=O)NCCCC[C@H](NC(=O)[C@H](C)NC)C(=O)N2CCC[C@H]2C(=O)N[C@@H]2CCCc3ccccc32)cc1)C(=O)N1CCC[C@H]1C(=O)N[C@@H]1CCCc2ccccc21.Cl.Cl [Compound 49]	–
0.2	82	2100	CNC(C)C(=O)N[C@@H](CCCCCC[C@H](NC(=O)[C@H](C)NC)C(=O)N1CCC[C@H]1C(=O)NCc1ccccc1)C(=O)N1CCC[C@H]1C(=O)NCc1ccccc1 (stereo partly shown) [Compound 6]	–
0.19	99	20	CN[C@@H](C)C(=O)N[C@@H](CCCCNC(=O)c1cccc(C(=O)NCCCC[C@H](NC(=O)[C@H](C)NC)C(=O)N2CCC[C@H]2C(=O)N[C@@H]2CCCc3ccccc32)c1)C(=O)N1CCC[C@H]1C(=O)N[C@@H]1CCCc2ccccc21.Cl.Cl [Compound 47]	–
0.158	104	620	CN[C@@H](C)C(=O)N[C@H](C(=O)N1CCCC1C(=O)N[C@@H]1CCCc2ccccc21)[C@@H](C)OCCCCCCO[C@H](C)[C@H](NC(=O)[C@H](C)NC)C(=O)N1CCC[C@H]1C(=O)N[C@@H]1CCCc2ccccc21.Cl.Cl (stereo partly shown) [Compound 14]	–
